Source: the supplement of paper PMC8024199
± gives the standard deviation of the averaged measurements.

Experiments:
Assay in all cases: drug sensitivity score (DSS) (DSS score); higher = more sensitive (stronger growth inhibition); extreme values may be limits of the assay
[1] = tested on: Ba/F3 P210-BCR-ABL1 RUNX1wt/wt control (mouse)
Method in brief: (§1)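 A drug sensitivity score summarised each dose-response curve, with luminescence from CellTiter-Glo scaled between vehicle and positive-control wells. Values are the mean of two replicates. The cells were mouse Ba/F3 clones that were CRISPR/Cas9-edited at a target exon or were edited controls, exposed on pre-printed 384-well plates to a 528-compound library at five concentrations spanning a 10,000-fold range. Plates held 10,000 cells per well in RPMI with 10% FBS for 72 h at 37 °C and 5% CO2.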

[2] = tested on: Ba/F3 P210-BCR-ABL1 RUNX1-/- (mouse)
Method in brief: as §1

[3] = tested on: Ba/F3 P210-BCR-ABL1 RUNX1-/mut (mouse)
Method in brief: as §1

Cc1nc(Nc2n[nH]c3c2CN(C(=O)N[C@H](CN(C)C)c2ccccc2)C3(C)C)c2sccc2n1
drug sensitivity score [1]: 24.85 ± 0.071
drug sensitivity score [2]: 40.15 ± 0.35
drug sensitivity score [3]: 37.2 ± 0.64

O=C1NC(=O)[C@@H](c2cn3c4c(cccc24)CCC3)[C@@H]1c1c[nH]c2ccccc12 [Tivantinib]
drug sensitivity score [1]: 3.25 ± 0.071
drug sensitivity score [2]: 5.6 ± 0.57
drug sensitivity score [3]: 5.45 ± 0.071

Cc1ncc(-c2ccnc(Nc3ccc(S(C)(=O)=O)cc3)n2)n1C(C)C [AZD-5438]
drug sensitivity score [1]: 9.8 ± 0.14
drug sensitivity score [2]: 5.5 ± 0.99
drug sensitivity score [3]: 8.8 ± 0.99

Cn1ncc(Cl)c1-c1cc(C(=O)N[C@H](CN)Cc2ccc(F)c(F)c2)oc1Cl [Uprosertib]
drug sensitivity score [1]: 0
drug sensitivity score [2]: 0.4 ± 0.57
drug sensitivity score [3]: 0

NC(=O)c1cccc(-c2cccc(OC(=O)NC3CCCCC3)c2)c1 [URB597]
drug sensitivity score [1]: 0.05 ± 0.071
drug sensitivity score [2]: 0
drug sensitivity score [3]: 0.15 ± 0.21

Cc1cc(OCc2nnc(SC3CCCC3)n2-c2cccnc2)ccc1-c1ccc(S(C)(=O)=O)cc1 [NMS-873]
drug sensitivity score [1]: 22.2 ± 0.71
drug sensitivity score [2]: 16.3 ± 1.6
drug sensitivity score [3]: 14.7 ± 1.1

c1cc(CN2CCCNCCNCCCNCC2)ccc1CN1CCCNCCNCCCNCC1 [Plerixafor]
drug sensitivity score [1]: 0
drug sensitivity score [2]: 0.05 ± 0.071
drug sensitivity score [3]: 0.05 ± 0.071

CC(C)(O)CC(=O)NCCn1ccc2ncnc(Nc3ccc(Oc4cccc(C(F)(F)F)c4)c(Cl)c3)c21 [TAK-285]
drug sensitivity score [1]: 0
drug sensitivity score [2]: 0
drug sensitivity score [3]: 0.5 ± 0.71

COc1cc(N2CCN(C)CC2)ccc1Nc1nccc(-c2cn(C)c3cnccc23)n1 [AZ191]
drug sensitivity score [1]: 2.5 ± 0.71
drug sensitivity score [2]: 7.2 ± 1.4
drug sensitivity score [3]: 7.45 ± 2.2

CC#CC(=O)N1CCC[C@H]1c1nc(-c2ccc(C(=O)Nc3ccccn3)cc2)c2c(N)nccn12 [Acalabrutinib]
drug sensitivity score [1]: 0
drug sensitivity score [2]: 0
drug sensitivity score [3]: 0.05 ± 0.071

COc1cc(Nc2ncc(F)c(Nc3ccc4c(n3)NC(=O)C(C)(C)O4)n2)cc(OC)c1OC [Tamatinib]
drug sensitivity score [1]: 5.8 ± 0.28
drug sensitivity score [2]: 7.15 ± 0.78
drug sensitivity score [3]: 4.15 ± 0.071

CC(C)[C@H](C(=O)Nc1ccc(C(=O)NO)cc1)c1ccccc1 [AR-42]
drug sensitivity score [1]: 16.5 ± 0.14
drug sensitivity score [2]: 20.3 ± 0.85
drug sensitivity score [3]: 17.9 ± 1.1

CCN(CC)Cc1ccc2cc(COC(=O)Nc3ccc(C(=O)NO)cc3)ccc2c1 [Givinostat]
drug sensitivity score [1]: 7.9 ± 0.99
drug sensitivity score [2]: 13.4 ± 0.28
drug sensitivity score [3]: 12.7 ± 0.57

Cc1c(-c2c(-c3ccc(F)o3)sc3ncnc(O[C@H](Cc4ccccc4OCc4ccnn4CC(F)(F)F)C(=O)O)c23)ccc(OCCN2CCN(C)CC2)c1Cl
drug sensitivity score [1]: 0
drug sensitivity score [2]: 1.7 ± 2.4
drug sensitivity score [3]: 3.45 ± 4.9

FC(F)(F)c1ccc(CNc2ccc(Cc3c[nH]c4ncc(Cl)cc34)cn2)cn1 [Pexidartinib]
drug sensitivity score [1]: 0.1 ± 0.14
drug sensitivity score [2]: 0.05 ± 0.071
drug sensitivity score [3]: 0.1 ± 0.14

O=C(c1ccc(F)c(F)c1Nc1ccc(I)cc1F)N1CC(O)([C@@H]2CCCCN2)C1 [Cobimetinib]
drug sensitivity score [1]: 0
drug sensitivity score [2]: 9.05 ± 0.78
drug sensitivity score [3]: 4.6 ± 1.8

Cc1cccc(-c2nn3c(c2-c2ccnc4ccc(C(N)=O)cc24)CCC3)n1 [Galunisertib]
drug sensitivity score [1]: 0
drug sensitivity score [2]: 0
drug sensitivity score [3]: 0

Cc1cc(C(C)Nc2ccccc2)c2nc(N3CCOCC3)cc(=O)n2c1 (centres undefined) [TGX-221]
drug sensitivity score [1]: 0
drug sensitivity score [2]: 2.7 ± 2.4
drug sensitivity score [3]: 2.4 ± 3.1

CNC(=O)c1ccc(C)c(-n2c(C)cc(OCc3ccc(F)cc3F)c(Br)c2=O)c1
drug sensitivity score [1]: 0
drug sensitivity score [2]: 0
drug sensitivity score [3]: 0.05 ± 0.071

Nc1nc2[nH]cc(CCc3ccc(C(=O)N[C@@H](CCC(=O)O)C(=O)O)cc3)c2c(=O)[nH]1 [Pemetrexed]
drug sensitivity score [1]: 26.6 ± 0.42
drug sensitivity score [2]: 27.8 ± 1.6
drug sensitivity score [3]: 27 ± 0.71

CCc1c2c(nc3ccc(O)cc13)-c1cc3c(c(=O)n1C2)COC(=O)[C@]3(O)CC [SN-38]
drug sensitivity score [1]: 26.9 ± 0.42
drug sensitivity score [2]: 33.2 ± 0.99
drug sensitivity score [3]: 29.1 ± 1.8

CNC(=O)c1cccc(-c2ccc3c(N4CCOC[C@@H]4C)nc(N4CCOC[C@@H]4C)nc3n2)c1 [Vistusertib]
drug sensitivity score [1]: 11
drug sensitivity score [2]: 18.8 ± 0.35
drug sensitivity score [3]: 16.1 ± 3.8

C[C@@H]1C=C2C(=O)O[C@@H]3CC[C@H](C1)[C@]23O [Galiellalactone]
drug sensitivity score [1]: 5.1
drug sensitivity score [2]: 12 ± 3.1
drug sensitivity score [3]: 9.7 ± 4.1
